{"source": "patent US20210024483A1", "about": "“HETEROCYLCOALKENYL DERIVATIVES USEFUL AS AGONISTS OF THE GPR120 AND / OR GPR40” (Janssen Pharmaceutica NV, priority 2018, published 2021)", "test_system": "DIO mice (C57Bl6 on high fat diet)", "assay": "GPR120 DIO Mice OGTT Screening", "type": "in vivo, mouse", "details": "3 mg/kg, glucose AUC −30 to 90 min, change from vehicle", "method": "GPR120 DIO Mice OGTT Screening\n18-22 week old, C57Bl6 mice on a high fat diet (60% HFD) for 12-16 weeks (average body weight ˜37-41 g) were fasted for 6 hr, with removal of food occurring at 7 am on the morning of the study. The animals were sorted into treatment groups the day before the study by body weight. Animals outside the bounds of ˜30-50 g were left out of the study. The animals had been handled and shammed a total of 5-8 days (1-3 days immediately prior to the study). Glucose (in 1 mL syringes) was drawn up the morning of the study. Test compounds were kept spinning and were only drawn into 1 ml syringes prior to study commencement. […]\nAnimals were moved into the testing room at ˜9-11 am, to yield them time to acclimate. […] All groups were dosed 30 minutes prior to glucose administration at a dose volume of 10 ml/kg (the dose volume was calculated separately for each individual animal). […]\nThirty minutes after the first dose (with test compound) animals were bled again for a second baseline, or T=0, and immediately dosed with glucose (20% solution; TEKNOVA, 250 ml sterile bottle w/catalogue number G0525) via a PO injection. The exact dose volume for glucose was also calculated separately for each individual animal.\nBlood glucose was measured at 15, 30, 45, 60, and 90 minutes post-glucose administration via the snipped tail. […]", "data": [{"compound": "Cc1c(CCC(=O)O)ccc(OCC2=C(c3ccc(Cl)cc3)COCC2)c1C", "note": "[ID No. 745, 3-[4-[[5-(4-chlorophenyl)-3,6-dihydro-2H-pyran-4-yl]methoxy]-2,3-dimethyl-phenyl]propanoic acid]", "values": [{"measurement": "DIO lowering (−30 to 90)", "value": "−63", "unit": "%"}]}]}
